Entries after “also recorded” stand apart in the source; their conditions may differ.
Columns and labels:
[1] = test system: primary human macrophages infected with S. aureus; assay: "peptides during differentiation" model, S. aureus phagocytosis by flow cytometry; type: cell-based; details: for contribution to phagocytosis: peptides during monocyte differentiation, then infection
Procedure: (§1) To assess the peptides influence on macrophages antibacterial properties, three different infection models studying intracellular bacteria survival, as outlined in Figures 3A, 5A, and 5D, were adopted. In all models, selected concentrations of peptides were used: 65 μM IDR-1018; 10 μM CATH-2; 10 μM LL-37.
(§2) The first step concerned the “peptides during infection” model, where cells were washed twice before incubation with the peptides for 24 h and subsequently bacteria were directly added to the culture without any washing step. In a subsequent step we assessed the “peptides during differentiation”, where peptides were added to the differentiation media for the first 3 days and removed after the regular media change; cells were washed twice before infection. In the third step we tested “peptides with MSCs”, where macrophages were cultured in presence of MSCs and peptides for 24 h; before infection cells were washed twice. All washing steps, before or after infection, were performed using warm α-MEM.
(§3) In all three models described, the same S. aureus infection protocol was applied. An overnight bacterial culture was diluted in α-MEM to reach a final inoculum concentration of 1 x 10^7 CFU/mL, and opsonized in 5% human pooled serum (HPS) for 15 min at 37°C. Opsonized S. aureus was added to the culture at a multiplicity of infection (MOI) = 1, meaning 1 bacterium per eukaryotic cell. To synchronize bacterial uptake, plates were centrifuged for 5 min, 110 x g at RT, and then moved to the incubator at 37°C, 5% CO2 for additional 25 min or 24 h. To study intracellular bacterial survival, after 30 min the cells were washed twice and cultured in media supplemented with 100 μg/mL gentamicin and 20 μg/mL lysostaphin for 1 h. Afterwards, cells were washed twice and incubated in media with only 5 μg/mL gentamicin. This treatment allows only intracellular bacteria to survive, as both gentamicin and lysostaphin are unable to penetrate mammalian cell membranes within short time periods ([Hamza et al., 2013]; [Hamza and Li, 2014]).
(§4) Samples were analyzed by flow cytometry and CFU counting at 30 min and 24 h after infection. Cells for flow cytometry were detached from the culture plate using 1mM DPBS/EDTA in combination with gentle scraping. When macrophages were cultured together with MSCs, samples were first trypsinzed and then scraped in DPBS/EDTA if cells were still attached to the bottom of the culture plate. Cells were moved to a 96-well plate and fixed in paraformaldehyde 4% before analysis. Samples were measured with MACSquant VYB (Miltenyi Biotech) flow cytometer and data analyzed with FlowJo. […] Non-infected samples were used to set GFP fluorescence baseline and define the proportion of infected, GFP-positive cells.

[2] = test system: primary human macrophages infected with S. aureus; assay: Confocal imaging, manual counting of intracellular bacteria ("peptides during infection" model); type: cell-based; details: 30 min infection, 50 randomly chosen cells
Procedure: According to the “peptides during infection” model, after 30 min infection cells were harvested and fixed as described for flow cytometry analysis. Cells membranes were stained with 3 μg/mL Alexa Fluor 647-labelled Wheat Germ Agglutinin (WGA) for 10 min at RT, on a shaking plate. Then, samples were transferred to CELLview slide previously coated with poly-L-lysine, and imaged on a Leica TCS SP5 microscope with a HCX PL AP CS 63x/1.40-0.60 OIL objective (Leica Microsystems). For each condition, the number of intracellular bacteria was counted in 50 randomly chosen cells. Images were adjusted for publication using Image J Fiji.

[3] = test system: primary human macrophages; assay: Human cytokine array G5 after LPS and peptide stimulation; type: cell-based; details: 24 h LPS and peptides, n = 2
Procedure: Qualitative expression of various cytokines and chemokines was measured in duplicate for selected conditions by human cytokine array G5, according to the manufacturer’s instructions.

[4] = test system: intracellular S. aureus in primary human macrophages; assay: "peptides during infection" model, intracellular S. aureus by CFU counting; type: cell-based
Procedure: as §1, §2, §3
(§5) To quantify the numbers of intracellular bacteria, cells were lysed with Triton X 0,1% and then plated on Todd-Hewitt agar plates in serial dilutions. Plates were incubated overnight at 37°C after which colonies were counted.

[5] = test system: intracellular S. aureus in primary human macrophages; assay: "peptides during differentiation" model, intracellular S. aureus by CFU counting; type: cell-based; details: 30 min and 24 h, n = 6
Procedure: as §1, §2
as §3, with “This treatment allows only intracellular bacteria to survive, as both gentamicin and lysostaphin are unable to penetrate mammalian cell membranes within short time periods ([Hamza et al., 2013]; [Hamza and Li, 2014]).” left out
as §5

[6] = test system: Staphylococcus aureus strain SH1000; assay: Peptides direct antibacterial properties, broth micro-dilution, growth by OD 600 nm; type: cell-based; details: for direct antibacterial effect on S. aureus growth: broth micro-dilution in THB, inoculum 5 x 10^5 CFU/mL, 37°C, OD 600 nm every 5 min for 12 h, concentration range of peptide
Procedure: All experiments used GFP-labelled Staphylococcus aureus strain SH1000, transformed with a GFP-expressing plasmid pCM29 to constitutively express GFP, as previously described ([Boero et al., 2021]). Bacteria were grown overnight in Todd-Hewitt broth (THB) with 10 μg/mL chloramphenicol to reach stationary phase.
Peptides were diluted at different concentrations in α-MEM supplemented with 10% FBS or in THB when testing their effects on macrophages or bacteria, respectively.
Peptides direct antibacterial properties were determined by broth micro-dilution method. Overnight bacterial suspension was diluted in THB to reach a final inoculum concentration of 5 x 10^5 colony-forming units per mL (CFU/mL). Bacterial suspension and peptides dilutions were mixed in equal parts in a flat-bottom 96-well plate in triplicates in a total volume of 200 μL, and incubated at 37°C. Bacterial growth was monitored by measuring OD (600nm) continuously every 5 minutes for 12 h in Clariostar plate reader (BMG labtech) with gentle shaking before each measurement.

[7] = cited from earlier work; for binding to LPS: "silent killing" mechanism, ref Coorens et al., 2017b
Description: One may argue that the inhibition of LPS-mediated activation of macrophages was not caused by peptides’ direct interaction with the immune cells. It was shown via a mechanism named “silent killing” that CATH-2 and LL-37 bind LPS to inhibit macrophages receptors activation ([Coorens et al., 2017b]).

[8] = test system: primary human macrophages; assay: LPS-induced TNF-α and IL-10 release of macrophages (ELISA); type: cell-based; details: for inhibition of macrophage LPS-mediated activation: 10 ng/mL LPS O111:B4, 24 h, TNF-α and IL-10 by ELISA
Procedure: Isolated monocytes were seeded in a 24-well plate at a density of 300,000 cells/well, except where otherwise stated. Monocytes were differentiated to macrophages by culture for 7 days in α-Minimum Essential Medium (α-MEM) supplemented with 10% (v/v) hyclone fetal bovine serum (hyFBS), 100 U/mL penicillin- streptomycin (1% p/s), and 40 ng/mL human recombinant M-CSF. Culture media was refreshed after 3-4 days.
Monocytes were seeded in a 96-well plate at a density of 150,000 cells/well. After 7 days differentiation, macrophages were incubated with fresh media containing a range of peptides concentrations alone or in combination with 10 ng/mL LPS O111:B4 from E. coli. After 24 h stimulation, the supernatant was collected to measure LDH levels or TNF-α and IL-10 by ELISA, according to the manufacturer’s instructions. Both LDH and ELISA assays were performed in three independent experiments with measurements in triplicate.

[9] = test system: primary human macrophages; assay: Macrophage phenotype markers CD80 / CD163 by flow cytometry; type: cell-based; details: 24 h, selected peptide concentrations alone or with LPS, n = 3
Procedure: After 7 days differentiation, macrophages were incubated with fresh media with LPS, IL-4, and optimal concentrations of peptides alone or in combination with LPS. After 24 h stimulation, macrophages were detached from the culture plate and processed for staining into a 96-well plate. All washing steps were performed with cold 0,1% (w/v) bovine serum albumin (BSA)/PBS and centrifugation at 5 min, 500 x g. A panel of surface molecules was selected, based on previous reports for human macrophage polarization ([Ambarus et al., 2012]). The staining solutions were prepared by diluting the following fluorochrome-conjugated antibodies in PBS with 0,1% BSA and 1% (v/v) heat-inactivated human serum: CD16 (1:50); CD80 (1:50); CD163 (1:50). As a negative control, staining solution without antibodies was used. Cells were incubated with staining solutions for 30 min on ice, in the dark. Markers expression was measured via flow cytometer (FACSVerse, BD) and data analyzed using FlowJo.

[10] = test system: primary human macrophages infected with S. aureus; assay: "peptides during infection" model, S. aureus phagocytosis by flow cytometry; type: cell-based
Procedure: as §1, §2, §3, §4

[11] = test system: primary human macrophages; details: ref Pena et al., 2013; cited from earlier work
Description: In addition to TNF-α and IL-10, the peptides affected the expression of several other cytokines involved in immune cells’ activation and recruitment at the inflammation site (Figure 2E).

[12] = peptides 24 h before and during infection, 65 μM IDR-1018, 10 μM CATH-2, 10 μM LL-37, MOI 1, 30 min, n = 9
[13] = peptides in differentiation medium for the first 3 days, MOI 1, 30 min, n = 6

## LLGDFFRKSKEKIGKEFKRIVQRIKDFLRNLVPRTES [LL-37, human cathelicidin host defense peptide, InVivogen]
[1]
  contribution to phagocytosis: had no impact
[2]
  bacterial uptake by macrophages, manual counting of intracellular bacteria: did not provide such effect
[3]
  expression of MIP-1β, RANTES and MCP-1,2,3: stronger inhibition of the LPS activation of macrophages
[4]; n = 9
  effect on S. aureus surviving intracellularly (CFU), 30 min and 24 h: no effects were observed
[5]
  macrophage intracellular killing (CFU): had no impact
[6]; n = 3
  direct antibacterial effect on S. aureus growth: did not show antibacterial effects at any concentration tested
[7]
  binding to LPS: bind LPS
[8]
  inhibition of macrophage LPS-mediated activation: inhibited macrophage lipopolysaccharide-mediated activation
[9]
  polarization of macrophages toward M1 (CD80) or M2 (CD163) phenotype: kept macrophages in an intermediate state

## RFGRFLRKIRRFRPKVTITIQGSARF-NH2 [CATH-2, chicken cathelicidin host defense peptide, CPC Scientific]
[1]
  contribution to phagocytosis: lost its contribution to phagocytosis; also recorded: had no impact
[2]
  bacterial uptake by macrophages, manual counting of intracellular bacteria: reduced the bacterial uptake by macrophages
[4]; 10 μM CATH-2, 65 μM IDR-1018, 10 μM LL-37, n = 9
  number of S. aureus surviving intracellularly (CFU), 30 min: significantly reduced
[4]; gentamicin and lysostaphin after 30 min, n = 9
  number of S. aureus surviving intracellularly (CFU), 24 h: not statistically significant; also recorded: comparable to the non-stimulated group
[5]
  macrophage intracellular killing (CFU): had no impact
[6]; THB, 12 h growth curve, compared with LPS inhibition assay
  concentration arresting S. aureus growth, relative to that needed to inhibit macrophage LPS-mediated activation: 10 times lower
[6]; n = 3
  direct antibacterial effect on S. aureus growth: had direct antibacterial properties
[10]; [12]
  bacterial load, geometric mean of GFP signal, 30 min: slightly reduced the bacterial load in macrophages
[7]
  binding to LPS: bind LPS
[8]
  inhibition of macrophage LPS-mediated activation: inhibited macrophage lipopolysaccharide-mediated activation
[9]
  polarization of macrophages toward M1 (CD80) or M2 (CD163) phenotype: kept macrophages in an intermediate state

## VRLIVAVRIWRR-NH2 [IDR-1018, bovine-derived cathelicidin host defense peptide, CPC Scientific]
[1]; [13]
  number of internalized bacteria (geometric mean of GFP signal), 30 min: significantly reduced
  proportion of infected macrophages, 30 min: significantly reduced
[11]
  polarization of macrophages toward M1 or M2 phenotype: did not correlate with the polarization of macrophages toward a clear M1 or M2 phenotype
[2]
  bacterial uptake by macrophages, manual counting of intracellular bacteria: reduced the bacterial uptake by macrophages
[4]; n = 9
  effect on S. aureus surviving intracellularly (CFU), 30 min and 24 h: no effects were observed
[5]
  macrophage intracellular killing (CFU): had no impact
[6]; THB, 12 h growth curve, OD 600 nm, n = 3
  concentration from which the start of S. aureus exponential growth is delayed: ≥ 65 µM
[6]; n = 3
  direct antibacterial effect on S. aureus growth: did not show antibacterial effects at any concentration tested
[10]; [12]
  bacterial load, geometric mean of GFP signal, 30 min: markedly decrease phagocytosis
  fraction of infected cells (macrophages that phagocytosed at least 1 bacterial cell), 30 min: significantly reduced the number of infected cells
[10]; peptides during infection model, 24 h after infection, n = 9 (Figure S5)
  amount of phagocytosed S. aureus, 24 h: reduced the amount of phagocytosed S. aureus
[7]; ref Wieczorek et al., 2010
  binding affinity to LPS: did not show significant binding affinity to LPS
[8]
  inhibition of macrophage LPS-mediated activation: inhibited macrophage lipopolysaccharide-mediated activation
[8]; 10 ng/mL LPS, 24 h, TNF-α and IL-10 ELISA
  concentration required for inhibition of LPS-mediated activation, compared among peptides: higher concentrations of IDR-1018 were required

Source: PMC9563556, “Antibacterial and anti-inflammatory properties of host defense peptides against Staphylococcus aureus” (iScience, 2022)
